For test [1], the system named is LPS-induced proteinuria. In words: LPS-induced proteinuria in mice treated with inhibitors, albuminuria by gel quantification. Format: in vivo, mouse. Particulars: FIG. 29A. The procedure:
Proteinuria was induced in male B6 mice (n=5 per group) by LPS injection. The mice were injected the mice with 250 μg ultrapure LPS (InvivoGen) intraperitoneally (i.p.) and started treatment with 200 μg cathepsin L inhibitor VI (Calbiochem) 30 min after disease induction. The LPS and inhibitor injections were repeated at 24 h and the mice were sacrificed at 48 h.
To quantify the level of proteinuria, urine was diluted with double-distilled water, boiled the diluted urine in sample buffer and analyzed the samples by NuPAGE (Invitrogen) followed by Coomassie blue staining BSA standards (from 0.125 to 2.0 μg) were run on the same gel and were used to identify and quantify urinary albumin bands. The albumin bands were quantified with ImageJ software (NIH) and determined the creatinine abundance from the same urine samples with a commercial kit (Cayman Chemical) according to the manufacturer's protocol.

Test [2] has as its system CatL-mediated degradation of synaptopodin. In words: Western blot of isolated glomeruli, LPS-induced degradation of synaptopodin and RhoA. In kind it is in vivo, mouse. To be noted: FIG. 29B. The source says: FIG. 29A: SDS-PAGE analysis of urines from control and LPS-injected mice (top). Quantitative analysis of albuminuria (bottom). FIG. 29B: Western blot analysis of isolated glomeruli showing that LPS causes the degradation of endogenous synaptopodin and RhoA.

In test [3] the test system is cathepsin L. In words: Generation of dynamin p40 fragment in LPS-treated cultured podocytes (Western blot). To be noted: LPS-treated podocytes expressing dynWT. In kind it is cell-based, mouse. From the text:
Next, it was examined whether cathepsin L could process dynamin in vivo, and whether this processing required GTP binding by dynamin. To this end, cultured podocytes were infected with adenoviruses expressing dynWT as well as different dynamin mutants. Infected podocytes were subsequently treated with LPS. LPS treatment increases cathepsin L presence and the activity in the cytosol (FIG. 3), and thus is expected to induce generation of the 40 kD proteolytic fragment. Respective cytosols were probed using the GTPase antibodies in order to detect N-terminal 40 kD proteolytic fragment. Expression of dynWT in podocytes treated with LPS identified proteolytic fragments that traveled with the same mobility as fragments observed in vitro. […] Furthermore, significant amount of p40 was present in cells expressing dynR725A prior to LPS treatment. […] Given complete protection of cathepsin L cleavage by GTPγS, it was reasoned that LPS treatment was somehow inducing dynR725A self-assembly, which in turn was protecting dynR725A from cathepsin L cleavage. This in turn would explain ability of dynR725A to counteract LPS and PAN treatment (FIG. 1D). […] Biochemical difference between dynWT, dynK694A and dynR725A is that only dynR725A is impaired in the rate of GTP-hydrolysis of assembled dynamin. This is important because GTP-hydrolysis drives disassemble of dynamin. Thus, while all three dynamins are predicted to self-assemble by LPS treatment, only dynR725A will stay assembled due to its inability to hydrolyze GTP. Once assembled dynWT and dynK694A hydrolyze GTP they will fall apart and thus become accessible for cathepsin L cleavage.
To explore CatL-mediated dynamin cleavage in vivo, cultured podocytes were infected with adenoviruses encoding different dynamin mutants and subsequently treated with LPS (FIG. 19G). […] To confirm the identity of the cleavage site, the ELSGGA (SEQ ID NO.29) sequence was mutated to EQSVGA (SEQ ID NO.31) (for simplicity, the mutant is subsequently referred to as dynL356Q). […] Finally, a GTPase-defective dynamin mutant was examined. Dynamin carrying a mutation in its […] (dynR725A) oligomerizes, but is impaired in assembly-stimulated GTP-hydrolysis. DynR725A is therefore predicted to live longer in the assembled state.
Podocytes were grown under non-permissive conditions to 70% confluence. Cells were washed twice with 1×PBS and infected with 1.2 ml of serum-free DMEM media containing 100 μl transactivator virus, 100 μl virus expressing dyn1 or dyn2. After 2 h of infection at 37° C., media containing virus was replaced with full DMEM. If cells were treated with LPS or PAN, 50 μg/ml of LPS or 50 μg/ml PAN was added at this point. 18-24 h post-infection, cells were detached using trypsin and processed either for subcellular fractionation or tested in the motility assays as described in (Reiser et al., J Biol Chem 279, 34827-34832 (2004)). When stated, 20 μM of Z-FF-FMK CatL specific inhibitor (Calbiochem, San Diego, Calif.) was added simultaneously with addition of LPS.
(Immunoblotting shows a protein as a band on a membrane.)

Test [4] deals with CatL. In words: Cathepsin activity in LPS-treated podocytes with fluorogenic substrate CV-(FR)2. In kind it is cell-based, mouse. To be noted: after LPS administration. The source says: (§1) Finally, it was examined whether CatL can be enzymatically active in the cytosol. Subcellular sites of CatL and CatB activity were visualized by a fluorogenic substrate, CV-(FR)2, which emits light upon cleavage by CatL. In untreated podocytes, protease activity was low and confined to perinuclear lysosomes (FIG. 17F).

The target in test [5] is T1, CatB (Mus musculus, UniProt P10605).
T1 construct: endogenous in cells; host or cells: cultured mouse podocytes
T1 sequence (P10605 80-333): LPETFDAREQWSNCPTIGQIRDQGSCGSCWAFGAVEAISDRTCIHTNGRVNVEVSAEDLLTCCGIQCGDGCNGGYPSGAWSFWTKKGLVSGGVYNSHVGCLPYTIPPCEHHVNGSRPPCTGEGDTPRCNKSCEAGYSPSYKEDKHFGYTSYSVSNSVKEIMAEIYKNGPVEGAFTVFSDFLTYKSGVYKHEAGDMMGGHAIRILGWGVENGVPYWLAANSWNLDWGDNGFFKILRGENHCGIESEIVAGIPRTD
In words: Cathepsin activity in podocytes with fluorogenic substrate CV-(FR)2, CatB. Format: cell-based.
Excerpt: as §1

We go through two compounds from US9144594B2, “Cathepsin L mediated diseases and associated methods and products” (University of Miami, priority 2005, dated 2015).

Entries after “also recorded” stand apart in the source; their conditions may differ. Where a SMILES comes first, the peptide text is derived from it. The star is where a group is joined. Cbz = O=C(OCc1ccccc1)*; CH2F = FC*

With `CC(C)C[C@H](NC(=O)[C@H]1O[C@@H]1C(=O)O)C(=O)NCCCCN=C(N)N` [E64], in test [1], the “LPS-induced proteinuria (albuminuria), in words” value is “ameliorate LPS-induced proteinuria”. For the same compound, in test [2], the “LPS-induced degradation of synaptopodin and RhoA, in words” value was “block the LPS-induced degradation of synaptopodin and RhoA”. Moreover, the “dynamin cleavage / p40 generation with inhibitor, in words” value in test [3] was “cleavage could be blocked”.

As to `O=C(NC(Cc1ccccc1)C(=O)NC(Cc1ccccc1)C(=O)CF)OCc1ccccc1` (stereo not drawn) [Z-FF-FMK, Z-Phe-Phe-fluoromethyl ketone, reference compound] (Cbz-Phe-Phe-CH2F; configuration not given here), in test [3], the “dynamin cleavage / p40 generation with inhibitor, in words” value is “resulted specifically in the loss of p40; also recorded: inhibited”. Further, in test [4], the “extralysosomal cathepsin activity, in words” value is listed as “vast majority of extralysosomal cathepsin activity after LPS administration was sensitive”. Further, the “inhibition of CatB, in words” value in test [5] is “does not inhibit CatB”.
